“Also recorded” adds a separate entry of the source.
Tests used:
[1] = test system: MOLM and K562 TET2 knockdown cells; assay: Culture of TET2 knockdown cell lines; type: cell-based; conditions: preliminary experiments
[2] = test system: tet2^MT clones; assay: In vivo mixed bone marrow transplant, CD45.2 vs CD45.1 ratio; design: species or system mice; conditions: 80 mg/kg 5 days/week, irradiated CD45.1 recipients transplanted with mixed marrow
Experimental: FIGS. 4A-4E provide graphs and images showing the In-vivo efficacy of TETi in the elimination of cells with TET2^MT. […] Tet^mt bone marrow cells were mixed in the ratio of 1:2 with tet2^+/+ bone marrow cells isolated from Pep (CD45.1). The mixed bone marrow cells were treated either with DMSO or with TETi76 in MethoCult™. Cells were isolated and ratio of CD45.1 (Pep, tet2^+/+) and CD45.2 (tet2mt) was determined by flow using antibodies against CD45.1 and CD45.2. B. Tet2^+/− bone marrow cells were mixed in the ratio of 1:2 with Tet2^+/+ in MethoCult with the treatment of DMSO or TETi76. Ratio of Tet2^+/− vs Tet2^+/+ was measured by flow. C. […] Ratio of Tet2^+/− vs Tet2^+/+ was measured by flow. […] CD45.1+ vs. CD45.2+ was serially assessed.
To further validate the feasibility of our proposed strategy as a therapeutic principle, we used mixing experiments in which tet2^MT/tet2^WT were co-cultured at fixed ratios to mimic evolving tet2MT clone and the differences in isoform fractions served as read out. […] As expected, tet2^MT grew at faster rate in the controls as reflected in the increased ratio >1:1 of tet2^MT/tet2^WT, while TETi treatment selectively eliminated the tet2^MT cells as determined using CD45.1/CD45.2 surface markers on tet2^WT and tet2^MT bone marrow, respectively (FIGS. 4A&B). […] First we determined MTD utilizing a dose escalation in a group of 3 mice each. […]

[3] = test system: K562 TET2^KO cells; assay: Colony forming assay in TET2 knock-out K562 cells; type: cell-based, human; conditions: K562 TET2^KO vs K562
Excerpt: (§1) FIGS. 3A-3G provide graphs showing the In-vitro efficacy of TETi in the elimination of TET2MTcells. A. Leukemia cell lines express different level of TET2. B. Ratio of TET2 expression vs. Lamin C. The dose response curves of cell survival with different concentration of TETi76 D. LD50 plotted against the relative expression of TET2 and C. E. Colony forming abilities of K562 TET2^+/+ and TET2^−/− cells in the presence and absence of TETi76. Data is representative of 3 independent experiment performed separately. F. Colony forming abilities of two independent normal bone marrow cells (NBM) and SIGM5 cells in MethoCult in the presence and absence of TETi76. Data is the summary of three independent experiments performed separately. G. Bone marrow from Tet2^+/+, Tet2^+/− and Tet2^−/− mice were harvested and cultured in MethoCult in the presence or absence of TETi76.
(§2) Efficacy and specificity of TETi. We used established tet2^+/− vs. tet2^−/− mouse models as well as several human myeloid cell lines selected to harbor TET2^MT or to express low level of TET2 to determine the specificity, establish the read out and provide proof of concept for the proposed strategy. […] The IC50 of different cells against TETi76 is inversely correlated with TET-activity (FIG. 3).

[4] = test system: K562; assay: Growth suppression / cell survival dose response in leukemia cell lines; type: cell-based, human; conditions: K562, high TET2 expressing
Excerpt: as §1, §2

[5] = test system: HEL01; assay: as above; type: cell-based, human; conditions: HEL01, high TET2 expressing
Excerpt: as §1, §2

[6] = test system: MOLM13; assay: as above; type: cell-based; conditions: Homo sapiens, MOLM-13; MOLM13, least TET2 expression
Excerpt: as §1, §2

[7] = test system: SIGM5; assay: as above; type: cell-based; conditions: Homo sapiens, SIG-M5; SIGM5, least TET2 expression
Excerpt: as §1, §2

[8] = MTD by dose escalation in mice; conditions: mouse, in vivo
Experimental: To further validate the feasibility of our proposed strategy as a therapeutic principle, we used mixing experiments in which tet2^MT/tet2^WT were co-cultured at fixed ratios to mimic evolving tet2MT clone and the differences in isoform fractions served as read out. In long-term culture of normal marrow from B6Cd45.1 Pep Boy vs. B6CD45.2 mice of tet2^+/− and tet2^−/− genetic background. Marrow cell from 3 mice/group were cultured in 1:2 ratio of tet2^MT/tet2^WT with/without TETi. Over the period of culture TETi effectively eliminated otherwise dominating tet2^+/− cells (FIG. 4). As expected, tet2^MT grew at faster rate in the controls as reflected in the increased ratio >1:1 of tet2^MT/tet2^WT, while TETi treatment selectively eliminated the tet2^MT cells as determined using CD45.1/CD45.2 surface markers on tet2^WT and tet2^MT bone marrow, respectively (FIGS. 4A&B). […] In vivo efficacy of TETi. […] First we determined MTD utilizing a dose escalation in a group of 3 mice each. […] The MTD was determined at 168 mg/kg. […] Once mice were fully recovered as determined by their weight, the ratio of tet2^MT and tet2^WT marrow was confirmed by CD45.1/CD45.2 cytometry prior to treatment. […] Ratio of CD45.2 vs. CD45.1 was determined at different time points (FIGS. 4D&E). […]

[9] = test system: Gulo^−/−Tet2^+/− cells; assay: hmC level in Gulo^−/−Tet2^+/− cells; type: cell-based
Excerpt: We optimized assays to assess the impact of mutation or haploinsufficiency on dioxygenase activity in our laboratory. We deployed 2 independent methods for the quantification of hmC/mC. First, a semi quantitative method of dot blot and second a highly sensitive 2D-UPLCMS method. These methods were used to determine the relative activity of TET2 enzymatic function. We can quantify TET2 dioxygenase activity products in cell lines and patient's bone marrow cells with various types of TET2^MT (FIG. 3E) in genetically modified (retrovirally-transduced TET2 shRNA) K562 and MOLM13 cells and bone marrow from Tet2^−/− and Tet^+/− mice. As expected, haploinsufficiency of TET2 leads to gene-dose dependent decreases in 5hmC and further oxidized products.

Row | SMILES | inhibitory effects compared to cells with scrambled shRNA [1] | growth of tet2^MT clones in vivo (ratio CD45.2 vs CD45.1) [2] | colony forming, effect of TET2 knock-out on sensitivity [3] | sensitivity to treatment [4] | sensitivity to treatment [5] | IC50 [6] | IC50 [7] | mortality at MTD [8] | MTD at 3 months ([8]; dose escalation, groups of 3 mice, 5 days a week, weekly dose increments) | levels of TET2 product hmC [9]
1 | COC(=O)CCC(=O)C(=O)OC [DMKG] | differential and dose-dependent inhibitory effects |  |  |  |  |  |  |  |  | 
2 | C=C(CC(O)C(=O)OCC)C(=O)OCC (centres unmarked) [TETi76] |  | most pronounced against tet2^−/− compared to tet2^+/− genotype; also recorded: prevents clonal expansion Tet2MT cells in vivo | sensitized these cells to TETi76 | lowest sensitivity | lowest sensitivity | 9.6 µM | 11.2 µM | no mortality | 168 mg/kg | 
3 | O=C1O[C@H]([C@@H](O)CO)C(O)=C1O [vitC, vitamin C] | differential and dose-dependent inhibitory effects |  |  |  |  |  |  |  |  | increases levels of the TET2 product hmC
